From US20260232682A1, “GSPT1 DEGRADER COMPOUNDS” (Captor Therapeutics S.A., priority 2023, published 2026) come the findings set out here.

Experiment [1] deals with [GSPT1]-[compound of formula (I)]-[CRBN/DDB1] complex (Homo sapiens, UniProt P15170+Q96SW2). The experiment in a line: AlphaLISA ternary complex formation assay (GSPT1). To be noted: 0.5 h; 1 μM compound; normalized to reference compound CC-885; read-out: Normalized AlphaLISA ternary complex average signal at 1 μM molecule. The class given is binding. The essentials: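 Biotinylated GSPT1 on streptavidin donor beads and 6×His-CRBN/DDB1 on anti-His acceptor beads (each 200 nM before mixing) in HBS pH 7.4 with 0.1% Tween-20 and 1 mM DTT, 2% DMSO final, 30 min at 25 °C. AlphaLISA luminescence is normalized between DMSO background and the reference compound's maximum.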

Experiment [2] concerns the target T1, GSPT1-HiBiT protein in GSPT1-HiBiT HEK293 cells (Homo sapiens, UniProt P15170+Q96SW2).
T1 construct: endogenous in cells; host or cells: HEK293 (CRISPR/Cas9 knock-in of HiBiT at the GSPT1 locus)
The experiment in a line: GSPT1 degradation assay using HiBiT system (Nano-Glo HiBiT lytic assay). The class given is cell-based. The note with it: 6 hours treatment; for DC50: read-out: HiBiT lytic assay Geomean absolute DC50. An excerpt:
The effect of selected compounds of the invention on GSPT1 protein levels was investigated, using the GSPT1-HiBiT HEK293 cell line and the Nano-Glo HiBiT degradation assay protocol below.
GSPT1-HiBiT HEK293 cells were generated in-house using the HEK293 parental cells (ATCC, cat. no 70016364) and the CRISPR/Cas9 system. HEK293 cells were transformed with pSpCas9-BB-2A-Puro v2.0 plasmid carrying gRNA targeting the C-terminus of GSPT1 and ssODN template containing the HiBiT tag sequence with flanking homology sequences. Neon Transfection System (Thermo Fisher Scientific) was used for electroporation. HEK293 GSPT1-HiBiT cells were cultured with DMEM Glutamax (Gibco) supplemented with 10% heat inactivated FBS (Gibco). After transfection the culture medium was changed to DMEM Glutamax with 10% heat-inactivated FBS and 1% Penicillin-Streptomycin (Biowest) supplemented with Puromycin (2 μg/ml; Invivogen) for clonal selection. In order to isolate single cell clones for further validation and analysis, limiting dilution cloning in 96-well plates was performed. When the single clones reached confluency, HiBiT Lytic Assay (Promega) was performed in order to identify HiBiT positive clones. The clone selected for further studies was verified and validated using genotyping and HiBiT Blotting (Promega).
Cells were maintained in DMEM Glutamax medium, supplemented with 1% penicillin/streptomycin and 10% Fetal Bovine Serum (FBS) at 37° C., 5% CO2. Compounds were stored frozen as 20 mM DMSO stocks.
For the Nano-Glo HiBiT assay, cells were seeded onto 384-well white solid bottom plate at 2×10^3 cells/well in 40 μL using the Agilent BioTek MultiFlo FX Multimode Dispenser and incubated overnight. Following overnight incubation (37° C., 5% CO2) cells were treated with the test compounds and vehicle only (DMSO) control using the Echo 555 Liquid Handler. Twelve data-point compound titration curve with concentrations ranging from 10 μM to 0.03 nM was used. Final DMSO concentration was kept constant at 0.25% v/v across the assay plate. After 6 hours of incubation (37° C., 5% CO2), plates were removed from the incubator and let to equilibrate to RT. Luminescent signal detection was conducted using the Nano-Glo HiBiT Lytic Detection System (Promega, cat. nr N3050). Nano-Glo HiBiT Lytic Reagent was prepared freshly by diluting the LgBiT Protein (1:100 vol/vol) and the Nano-Glo HiBiT Lytic Substrate (1:50 vol/vol) in the relevant volume of the Nano-Glo HiBiT Lytic Buffer. 40 μL of the HiBiT Lytic Reagent was added per well, plates were shaken to facilitate lysis (350 rpm, 5 min, RT) and incubated in the dark for the following 10 min. Luminescence was read using the PHERAstar multimode plate reader (BMG LABTECH). The raw data (the relative luminescence unit values, RLU) were uploaded under the relevant protocol and analysed in CDDVault data management platform. Luminescence (RLU) values were normalized to the controls, and reported absolute DC50 values and Dmax values were calculated in CDDVault using non-linear regression and appropriate equations.
For orientation: HiBiT is a short tag that completes a luciferase, so light tracks the accessible tagged protein.

In experiment [3] the target is T2, [SALL4 ZF2]-[compound]-[CRBN/DDB1] ternary complex (Homo sapiens, UniProt Q96SW2+Q9UJQ4).
T2 construct: SALL4 ZF2
The experiment in a line: AlphaLISA assay for off-target recruitment detection, SALL4 ZF2. The class given is binding. The note with it: 1 μM compound; normalized to Lenalidomide; read-out: Normalized ternary complex response, SALL4 ZF2. In a few lines: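 Neo-substrate with 40 μg/ml donor beads and 200 nM 6×His-CRBN/DDB1 with 40 μg/ml anti-His acceptor beads were each prepared in PBS pH 7.4 with Tween-20 and 1 mM DTT, preincubated 30 min at RT, then mixed. Compounds at 2% DMSO were incubated 30 min at 25 °C, read at 680/615 nm, and normalised between DMSO background and reference glue maximum.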
(In general: In Alpha technology, singlet oxygen from a donor bead excites a nearby acceptor bead.)

Sequence of [GSPT1]-[compound of formula (I)]-[CRBN/DDB1] complex (P15170 whole entry): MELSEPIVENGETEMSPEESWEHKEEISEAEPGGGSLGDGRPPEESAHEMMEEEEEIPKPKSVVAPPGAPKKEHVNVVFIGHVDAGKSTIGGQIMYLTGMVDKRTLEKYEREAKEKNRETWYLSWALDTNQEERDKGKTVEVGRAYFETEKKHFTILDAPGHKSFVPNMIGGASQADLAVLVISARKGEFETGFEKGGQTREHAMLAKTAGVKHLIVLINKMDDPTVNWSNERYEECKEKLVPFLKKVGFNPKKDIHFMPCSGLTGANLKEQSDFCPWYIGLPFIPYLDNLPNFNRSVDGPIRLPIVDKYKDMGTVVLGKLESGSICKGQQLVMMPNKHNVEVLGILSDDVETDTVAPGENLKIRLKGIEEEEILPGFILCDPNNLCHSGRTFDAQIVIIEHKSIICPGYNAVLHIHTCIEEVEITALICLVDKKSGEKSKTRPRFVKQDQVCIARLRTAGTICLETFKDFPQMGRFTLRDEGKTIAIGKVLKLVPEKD
Sequence of [GSPT1]-[compound of formula (I)]-[CRBN/DDB1] complex (Q96SW2 whole entry): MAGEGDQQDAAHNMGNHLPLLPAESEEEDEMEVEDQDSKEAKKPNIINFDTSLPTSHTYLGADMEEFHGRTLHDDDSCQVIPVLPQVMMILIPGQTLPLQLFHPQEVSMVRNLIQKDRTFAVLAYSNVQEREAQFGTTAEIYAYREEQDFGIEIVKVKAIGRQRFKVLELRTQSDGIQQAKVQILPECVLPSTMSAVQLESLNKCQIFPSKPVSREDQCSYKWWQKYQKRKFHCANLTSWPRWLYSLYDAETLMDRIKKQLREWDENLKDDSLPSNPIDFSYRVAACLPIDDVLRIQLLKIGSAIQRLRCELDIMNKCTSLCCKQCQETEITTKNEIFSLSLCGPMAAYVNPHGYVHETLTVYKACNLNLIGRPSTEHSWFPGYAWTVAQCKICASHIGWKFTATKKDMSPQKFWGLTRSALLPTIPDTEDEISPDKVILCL
Sequence of [GSPT1]-[compound of formula (I)]-[CRBN/DDB1] complex (Q16531 whole entry partner): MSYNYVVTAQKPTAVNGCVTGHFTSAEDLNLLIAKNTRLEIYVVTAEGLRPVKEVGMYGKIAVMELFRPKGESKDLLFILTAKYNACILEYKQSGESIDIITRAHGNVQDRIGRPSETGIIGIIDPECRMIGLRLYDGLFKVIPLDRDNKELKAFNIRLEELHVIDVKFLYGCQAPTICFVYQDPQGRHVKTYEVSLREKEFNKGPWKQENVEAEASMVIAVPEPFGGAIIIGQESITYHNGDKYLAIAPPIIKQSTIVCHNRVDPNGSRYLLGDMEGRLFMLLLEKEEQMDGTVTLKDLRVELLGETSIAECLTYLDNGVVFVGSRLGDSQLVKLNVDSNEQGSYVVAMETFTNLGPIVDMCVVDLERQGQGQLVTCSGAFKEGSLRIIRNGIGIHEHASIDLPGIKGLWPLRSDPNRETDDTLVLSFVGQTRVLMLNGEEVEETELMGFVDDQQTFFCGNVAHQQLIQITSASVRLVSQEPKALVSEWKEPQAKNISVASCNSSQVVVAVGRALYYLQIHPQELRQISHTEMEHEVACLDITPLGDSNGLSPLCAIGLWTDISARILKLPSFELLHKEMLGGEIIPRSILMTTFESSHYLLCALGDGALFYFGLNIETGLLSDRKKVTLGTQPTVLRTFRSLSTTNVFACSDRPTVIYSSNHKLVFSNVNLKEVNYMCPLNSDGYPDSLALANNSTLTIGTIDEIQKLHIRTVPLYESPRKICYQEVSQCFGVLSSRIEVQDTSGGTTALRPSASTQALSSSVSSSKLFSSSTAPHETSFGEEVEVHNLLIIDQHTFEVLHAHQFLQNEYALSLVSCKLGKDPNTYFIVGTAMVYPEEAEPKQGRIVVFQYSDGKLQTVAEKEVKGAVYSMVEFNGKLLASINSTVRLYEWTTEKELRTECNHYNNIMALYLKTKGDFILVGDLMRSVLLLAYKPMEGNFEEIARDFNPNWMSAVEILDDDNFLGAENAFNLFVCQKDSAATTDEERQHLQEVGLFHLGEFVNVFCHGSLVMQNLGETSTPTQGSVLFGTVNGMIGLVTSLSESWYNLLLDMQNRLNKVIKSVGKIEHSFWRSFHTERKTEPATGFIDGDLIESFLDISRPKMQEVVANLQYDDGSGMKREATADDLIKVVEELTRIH
T1 sequence (P15170 whole entry): as the sequence (P15170 whole entry) above
T1 sequence (Q96SW2 whole entry): as the sequence (Q96SW2 whole entry) above
T1 sequence (Q16531 whole entry partner): as the sequence (Q16531 whole entry partner) above
T2 sequence (Q9UJQ4 410-432 limits assumed): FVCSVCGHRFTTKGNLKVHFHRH
T2 sequence (Q96SW2 whole entry): as the sequence (Q96SW2 whole entry) above
T2 sequence (Q16531 whole entry partner): as the sequence (Q16531 whole entry partner) above

On to `Cc1ccc(NC(=O)OCc2ccc3cc([C@H]4CCC(=O)NC4=O)c(C)nc3c2)cc1Cl` [Compound 39, (3-(2,6-dioxopiperidin-3-yl)-2-methylquinolin-7-yl)methyl (3-chloro-4-methylphenyl)carbamate], for which the activation at 1 µM in experiment [1] was more than 50%; in experiment [3], less than 10%. The Dmax (in general, the greatest extent of degradation seen) in experiment [2] was not below 75%. Further, in experiment [2], the DC50 (commonly the midpoint of the concentration-degradation curve) was less than 10 nM.

With `Cc1nc2cc(COC(=O)Nc3ccc(C(C)(C)C)cc3)ccc2cc1C1CCC(=O)NC1=O` (stereo not shown) [Compound 8, (3-(2,6-dioxopiperidin-3-yl)-2-methylquinolin-7-yl)methyl (4-(tert-butyl)phenyl)carbamate], the activation at 1 µM in experiment [1] was more than 50%. Also, in experiment [2], the Dmax is not below 75% and the DC50 is less than 10 nM. Moreover, in experiment [3], the activation at 1 µM was less than 10%.

For the compound `COc1ccc(NC(=O)OCc2ccc3cc(C4CCC(=O)NC4=O)c(C)nc3c2)nn1` (stereo not shown) [Compound 45, (3-(2,6-dioxopiperidin-3-yl)-2-methylquinolin-7-yl)methyl (6-methoxypyridazin-3-yl)carbamate], the activation at 1 µM was 10 to 50% in experiment [1] and less than 10% in experiment [3]. In experiment [2], this compound displayed a Dmax not below 75%. For the same compound, in experiment [2], the DC50 fell in the range of 10 to 50 nM.

In the case of `Cc1nc2cc(COC(=O)Nc3nc(C(C)(C)C)no3)ccc2cc1C1CCC(=O)NC1=O` (stereo not shown) [Compound 80, (3-(2,6-dioxopiperidin-3-yl)-2-methylquinolin-7-yl)methyl (3-(tert-butyl)-1,2,4-oxadiazol-5-yl)carbamate], the activation at 1 µM in experiment [1] is more than 50%; in experiment [3] it was less than 10%. This compound came in with a Dmax in experiment [2] not below 75%. In experiment [2], the half-maximal degradation concentration (DC50) fell in the range of 10 to 50 nM.

Consider `Cc1ccc(NC(=O)OCc2ccc3cc([C@@H]4CCC(=O)NC4=O)c(C)nc3c2)cc1Cl` [Compound 38, (3-(2,6-dioxopiperidin-3-yl)-2-methylquinolin-7-yl)methyl (3-chloro-4-methylphenyl)carbamate], for which the activation at 1 µM in experiment [1] is less than 10%. For the same compound, in experiment [2], the greatest degradation seen (Dmax) was not below 75% and the DC50 fell in the range of 50 to 100 nM. For the same compound, the activation at 1 µM in experiment [3] is less than 10%.

For the compound `Cc1ccc(NC(=O)NCc2ccc3nc(C)c(N4CCC(=O)NC4=O)cc3c2)cc1Cl` [Compound 51, 1-(3-chloro-4-methylphenyl)-3-((3-(2,4-dioxotetrahydropyrimidin-1(2H)-yl)-2-methylquinolin-6-yl)methyl)urea], the activation at 1 µM in experiment [1] is 10 to 50%; in experiment [3], not below 50%. This compound also yielded a maximal degradation (Dmax) in experiment [2] not below 75%. Also, the DC50 in experiment [2] lay within 10 to 50 nM.

For the compound `COc1cnc(NC(=O)OCc2ccc3cc(C4CCC(=O)NC4=O)c(C)nc3c2)cn1` (stereo not shown) [Compound 59, (3-(2,6-dioxopiperidin-3-yl)-2-methylquinolin-7-yl)methyl (5-methoxypyrazin-2-yl)carbamate], the activation at 1 µM in experiment [1] is more than 50%. Also, in experiment [2], the Dmax is not below 75% and the half-maximal degradation concentration (DC50) lay in the range of 10 to 50 nM. Also, the activation at 1 µM in experiment [3] was less than 10%.

Take `Cc1nc2cc(COC(=O)Nc3ccc(-c4ccccc4)nc3)ccc2cc1C1CCC(=O)NC1=O` (stereo not shown) [Compound 20, (3-(2,6-dioxopiperidin-3-yl)-2-methylquinolin-7-yl)methyl (6-phenylpyridin-3-yl)carbamate]: the activation at 1 µM in experiment [1] is 10 to 50%; in experiment [3], less than 10%. Further, the Dmax in experiment [2] is not below 75%. In experiment [2], the half-maximal degradation concentration (DC50) was less than 10 nM.

With `Cc1nc2cc(COC(=O)NC3CCC(C(C)(C)C)CC3)ccc2cc1C1CCC(=O)NC1=O` (stereo not shown) [Compound 55, (3-(2,6-dioxopiperidin-3-yl)-2-methylquinolin-7-yl)methyl (4-(tert-butyl)cyclohexyl)carbamate], the activation at 1 µM in experiment [1] was more than 50%; in experiment [3], less than 10%. This compound also gave a Dmax in experiment [2] not below 75%. In experiment [2], the DC50 was in the range of 10 to 50 nM.

In the case of `Cc1nc2cc(COC(=O)Nc3cc(C(C)(C)C)on3)ccc2cc1C1CCC(=O)NC1=O` (stereo not shown) [Compound 70, (3-(2,6-dioxopiperidin-3-yl)-2-methylquinolin-7-yl)methyl (5-(tert-butyl)isoxazol-3-yl)carbamate], in experiment [1], the activation at 1 µM is more than 50%. Moreover, in experiment [2], the Dmax was not below 75% and the DC50 is less than 10 nM. Besides, the activation at 1 µM in experiment [3] was less than 10%.

In the case of `Cc1nc2cc(COC(=O)Nc3ccc(C(F)(F)F)c(Cl)c3)ccc2cc1C1CCC(=O)NC1=O` (stereo not shown) [Compound 18, (3-(2,6-dioxopiperidin-3-yl)-2-methylquinolin-7-yl)methyl (3-chloro-4-(trifluoromethyl)phenyl)carbamate], the activation at 1 µM in experiment [1] lay in the range of 10 to 50%. Also, in experiment [2], the maximal degradation (Dmax) is not below 75% and the DC50 lay in the range of 10 to 50 nM. In experiment [3], the activation at 1 µM is less than 10%.

Take `Cc1ccc(NC(=O)OCc2ccc3cc(C4CCC(=O)NC4=O)c(C)nc3c2)cc1Cl` (stereo not shown) [Compound 4, (3-(2,6-dioxopiperidin-3-yl)-2-methylquinolin-7-yl)methyl (3-chloro-4-methylphenyl)carbamate]: the activation at 1 µM in experiment [1] was more than 50%. For the same compound, in experiment [2], the maximal degradation (Dmax) was not below 75% and the DC50 fell in the range of 10 to 50 nM. In addition, the activation at 1 µM in experiment [3] is less than 10%.

For the compound `COc1ccc(NC(=O)OCc2ccc3cc(C4CCC(=O)NC4=O)c(C)nc3c2)cc1Cl` (stereo not shown) [Compound 11, (3-(2,6-dioxopiperidin-3-yl)-2-methylquinolin-7-yl)methyl (3-chloro-4-methoxyphenyl)carbamate], the activation at 1 µM in experiment [1] was more than 50%. Besides, in experiment [2], the Dmax was not below 75% and the DC50 was less than 10 nM. In addition, the activation at 1 µM in experiment [3] was less than 10%.

Consider `Cc1nc2cc(COC(=O)Nc3cc(C(F)(F)F)no3)ccc2cc1C1CCC(=O)NC1=O` (stereo not shown) [Compound 71, (3-(2,6-dioxopiperidin-3-yl)-2-methylquinolin-7-yl)methyl (3-(trifluoromethyl)isoxazol-5-yl)carbamate], for which the activation at 1 µM is more than 50% in experiment [1] and less than 10% in experiment [3]. In experiment [2], this compound showed a Dmax not below 75%. Besides, the DC50 in experiment [2] lay within 50 to 100 nM.

With `Cc1nc2cc(COC(=O)Nc3cc(C(F)(F)F)n[nH]3)ccc2cc1C1CCC(=O)NC1=O` (stereo not shown) [Compound 69, (3-(2,6-dioxopiperidin-3-yl)-2-methylquinolin-7-yl)methyl (3-(trifluoromethyl)-1H-pyrazol-5-yl)carbamate], the activation at 1 µM in experiment [1] was more than 50%; in experiment [3], less than 10%. In addition, in experiment [2], the maximal degradation (Dmax) was not below 75%. Moreover, the DC50 in experiment [2] is 10 to 50 nM.

Take `Cc1nc2ccc(CNC(=O)Nc3cc(C(C)(C)C)no3)cc2cc1N1CCC(=O)NC1=O` [Compound 67, 1-(3-(tert-butyl)isoxazol-5-yl)-3-((3-(2,4-dioxotetrahydropyrimidin-1(2H)-yl)-2-methylquinolin-6-yl)methyl)urea]: in experiment [1], the activation at 1 µM was more than 50%. Further, in experiment [2], the Dmax is not below 75% and the DC50 was 10 to 50 nM. For the same compound, the activation at 1 µM in experiment [3] is 25 to 50%.
